Results published in publication PMC9898036, “VIP152 is a selective CDK9 inhibitor with pre-clinical in vitro and in vivo efficacy in chronic lymphocytic leukemia” (Leukemia, 2022).
Like-named read-outs stand apart in the source and are kept apart here.

What was measured:
[1] = test system: OSU-CLL; experiment: MTS proliferation assay; assay type: cell-based; details: Homo sapiens, 24, 48, and 72 h
[2] = biological target: LTK (Homo sapiens, UniProt P29376); experiment: KINOMEscan: LTK; assay type: binding; details: 1000 nM, read-out: Percent Control
[3] = biological target: MAP3K4 (Homo sapiens, UniProt Q9Y6R4); experiment: KINOMEscan: MAP3K4; assay type: binding; details: 1000 nM, read-out: Percent Control
[4] = biological target: YSK4 (Homo sapiens, UniProt Q56UN5); experiment: KINOMEscan: YSK4; assay type: binding; details: 100 nM, read-out: Percent Control
Sequence of YSK4 (Q56UN5 whole entry): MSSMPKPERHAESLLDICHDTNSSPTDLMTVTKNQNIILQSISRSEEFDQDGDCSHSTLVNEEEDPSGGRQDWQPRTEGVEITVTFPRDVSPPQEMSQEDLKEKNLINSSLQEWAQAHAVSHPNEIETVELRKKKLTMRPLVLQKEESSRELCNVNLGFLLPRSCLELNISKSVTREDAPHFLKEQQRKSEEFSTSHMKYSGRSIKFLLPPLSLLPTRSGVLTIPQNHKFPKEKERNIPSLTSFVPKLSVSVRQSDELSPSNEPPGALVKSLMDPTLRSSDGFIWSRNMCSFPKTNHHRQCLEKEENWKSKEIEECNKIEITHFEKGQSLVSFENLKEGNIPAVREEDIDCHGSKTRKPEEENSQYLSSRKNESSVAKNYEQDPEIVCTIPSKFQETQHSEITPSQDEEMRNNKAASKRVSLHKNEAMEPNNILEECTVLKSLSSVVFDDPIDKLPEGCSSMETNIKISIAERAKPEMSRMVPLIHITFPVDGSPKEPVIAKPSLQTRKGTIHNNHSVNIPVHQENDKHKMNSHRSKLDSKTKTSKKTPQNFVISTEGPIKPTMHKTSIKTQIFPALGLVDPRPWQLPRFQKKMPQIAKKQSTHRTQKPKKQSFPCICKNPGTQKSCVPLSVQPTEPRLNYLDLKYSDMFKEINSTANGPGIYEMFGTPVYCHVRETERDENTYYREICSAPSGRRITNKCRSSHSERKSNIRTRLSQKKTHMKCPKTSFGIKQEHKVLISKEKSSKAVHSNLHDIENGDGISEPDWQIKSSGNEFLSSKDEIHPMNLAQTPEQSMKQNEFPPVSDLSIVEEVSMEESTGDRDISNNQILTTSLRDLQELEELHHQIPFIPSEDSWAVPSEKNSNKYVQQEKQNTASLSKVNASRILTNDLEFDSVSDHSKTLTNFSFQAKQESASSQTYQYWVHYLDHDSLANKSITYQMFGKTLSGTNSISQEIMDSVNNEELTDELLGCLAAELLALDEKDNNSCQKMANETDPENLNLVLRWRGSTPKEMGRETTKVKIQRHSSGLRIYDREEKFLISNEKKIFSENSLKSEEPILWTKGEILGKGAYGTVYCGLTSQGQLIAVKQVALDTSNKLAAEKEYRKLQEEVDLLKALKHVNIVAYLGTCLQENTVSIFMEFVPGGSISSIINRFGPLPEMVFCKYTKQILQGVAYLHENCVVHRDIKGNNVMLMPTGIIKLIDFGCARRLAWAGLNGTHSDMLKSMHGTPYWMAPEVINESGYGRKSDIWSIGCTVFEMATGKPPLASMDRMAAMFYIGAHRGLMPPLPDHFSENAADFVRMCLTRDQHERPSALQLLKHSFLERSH

[5] = biological target: RPS6KA4(Kin.Dom.2-C-terminal) (Homo sapiens, UniProt O75676); experiment: KINOMEscan: RPS6KA4(Kin.Dom.2-C-terminal); assay type: binding; details: 100 nM, read-out: Percent Control
Sequence of RPS6KA4(Kin.Dom.2-C-terminal) (O75676 372-772 limits assumed): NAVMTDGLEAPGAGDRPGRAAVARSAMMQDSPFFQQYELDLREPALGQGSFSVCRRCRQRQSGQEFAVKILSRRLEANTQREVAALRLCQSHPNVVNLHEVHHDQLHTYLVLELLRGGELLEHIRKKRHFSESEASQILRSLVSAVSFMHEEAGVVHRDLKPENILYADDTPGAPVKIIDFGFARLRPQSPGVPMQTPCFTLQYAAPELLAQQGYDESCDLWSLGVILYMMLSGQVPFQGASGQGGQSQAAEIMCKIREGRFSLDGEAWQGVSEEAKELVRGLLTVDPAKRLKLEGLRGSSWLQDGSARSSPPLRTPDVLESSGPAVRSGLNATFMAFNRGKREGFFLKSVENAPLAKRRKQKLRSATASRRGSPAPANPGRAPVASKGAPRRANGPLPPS

[6] = biological target: Muscarinic M2 (Homo sapiens, UniProt P08172); experiment: Eurofins Diversity Panel; assay type: binding; details: hum, Conc. 10 μM
[7] = biological target: MAST1 (Homo sapiens, UniProt Q9Y2H9); experiment: KINOMEscan: MAST1; assay type: binding; details: 1000 nM, read-out: Percent Control
[8] = biological target: CAMK1 (Homo sapiens, UniProt Q14012); experiment: KINOMEscan: CAMK1; assay type: binding; details: 1000 nM, read-out: Percent Control
[9] = biological target: CDK4-cyclinD1 (Homo sapiens, UniProt P11802); experiment: KINOMEscan: CDK4-cyclinD1; assay type: binding; details: 1000 nM, read-out: Percent Control
Sequence of CDK4-cyclinD1 (P11802 whole entry): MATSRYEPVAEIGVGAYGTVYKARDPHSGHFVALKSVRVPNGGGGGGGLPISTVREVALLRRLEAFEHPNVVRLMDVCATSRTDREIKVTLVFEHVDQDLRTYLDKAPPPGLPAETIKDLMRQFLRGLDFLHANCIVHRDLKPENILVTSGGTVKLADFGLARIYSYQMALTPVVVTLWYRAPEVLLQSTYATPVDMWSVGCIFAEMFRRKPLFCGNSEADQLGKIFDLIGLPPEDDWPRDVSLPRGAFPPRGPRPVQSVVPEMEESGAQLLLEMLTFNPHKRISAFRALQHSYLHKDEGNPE
Sequence of CDK4-cyclinD1 (P24385 whole entry partner): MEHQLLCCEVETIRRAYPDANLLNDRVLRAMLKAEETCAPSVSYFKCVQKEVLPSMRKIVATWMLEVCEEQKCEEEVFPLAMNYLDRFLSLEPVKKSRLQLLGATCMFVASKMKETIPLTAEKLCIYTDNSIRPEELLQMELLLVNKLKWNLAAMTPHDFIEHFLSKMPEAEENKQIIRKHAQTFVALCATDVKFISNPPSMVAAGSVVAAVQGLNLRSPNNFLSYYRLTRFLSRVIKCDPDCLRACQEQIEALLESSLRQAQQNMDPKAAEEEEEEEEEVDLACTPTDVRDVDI

[10] = biological target: RIOK3 (Homo sapiens, UniProt O14730); experiment: KINOMEscan: RIOK3; assay type: binding; details: 100 nM, read-out: Percent Control
[11] = biological target: Histamine H2 (Homo sapiens, UniProt P25021); experiment: Eurofins Diversity Panel; assay type: binding; details: hum, Conc. 10 μM
Sequence of Histamine H2 (P25021 whole entry): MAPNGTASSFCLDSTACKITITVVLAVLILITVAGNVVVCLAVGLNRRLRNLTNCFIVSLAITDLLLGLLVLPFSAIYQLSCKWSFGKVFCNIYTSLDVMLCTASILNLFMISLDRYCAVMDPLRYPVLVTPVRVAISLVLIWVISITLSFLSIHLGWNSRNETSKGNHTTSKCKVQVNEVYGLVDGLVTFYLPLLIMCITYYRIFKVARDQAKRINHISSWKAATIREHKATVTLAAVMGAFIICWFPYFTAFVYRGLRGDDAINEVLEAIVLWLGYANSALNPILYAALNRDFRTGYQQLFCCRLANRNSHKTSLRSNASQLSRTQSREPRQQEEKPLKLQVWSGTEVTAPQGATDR

[12] = biological target: RSK4(Kin.Dom.1-N-terminal) (Homo sapiens, UniProt Q9UK32); experiment: KINOMEscan: RSK4(Kin.Dom.1-N-terminal); assay type: binding; details: 100 nM, read-out: Percent Control
[13] = biological target: EPHB6 (Homo sapiens, UniProt O15197); experiment: KINOMEscan: EPHB6; assay type: binding; details: 1000 nM, read-out: Percent Control
[14] = biological target: CDC2L5 (Homo sapiens, UniProt Q14004); experiment: KINOMEscan: CDC2L5; assay type: binding; details: 1000 nM, read-out: Percent Control
[15] = biological target: FGR (Homo sapiens, UniProt P09769); experiment: KINOMEscan: FGR; assay type: binding; details: 1000 nM, read-out: Percent Control
[16] = biological target: YANK2 (Homo sapiens, UniProt Q9NY57); experiment: KINOMEscan: YANK2; assay type: binding; details: 100 nM, read-out: Percent Control
[17] = biological target: TNK1 (Homo sapiens, UniProt Q13470); experiment: KINOMEscan: TNK1; assay type: binding; details: 100 nM, read-out: Percent Control
Sequence of TNK1 (Q13470 whole entry): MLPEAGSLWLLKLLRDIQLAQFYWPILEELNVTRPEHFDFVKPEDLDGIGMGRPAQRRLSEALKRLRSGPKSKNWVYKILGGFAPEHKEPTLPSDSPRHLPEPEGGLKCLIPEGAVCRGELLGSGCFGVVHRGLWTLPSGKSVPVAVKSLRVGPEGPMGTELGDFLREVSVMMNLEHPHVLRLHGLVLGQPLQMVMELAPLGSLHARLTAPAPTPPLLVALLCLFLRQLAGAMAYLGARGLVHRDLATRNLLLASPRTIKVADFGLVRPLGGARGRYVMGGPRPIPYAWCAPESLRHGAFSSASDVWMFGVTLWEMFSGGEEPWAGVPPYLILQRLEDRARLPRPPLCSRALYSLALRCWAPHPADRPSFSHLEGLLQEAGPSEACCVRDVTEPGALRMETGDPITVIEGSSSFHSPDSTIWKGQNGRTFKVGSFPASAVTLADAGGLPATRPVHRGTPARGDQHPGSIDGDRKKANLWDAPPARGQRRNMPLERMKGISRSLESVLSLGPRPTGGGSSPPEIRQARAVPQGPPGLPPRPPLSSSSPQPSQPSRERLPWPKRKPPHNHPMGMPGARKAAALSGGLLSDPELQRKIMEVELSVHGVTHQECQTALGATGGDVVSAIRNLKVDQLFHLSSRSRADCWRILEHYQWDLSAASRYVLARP

[18] = biological target: CDK4-cyclinD3 (Homo sapiens, UniProt P11802); experiment: KINOMEscan: CDK4-cyclinD3; assay type: binding; details: 1000 nM, read-out: Percent Control
Sequence of CDK4-cyclinD3 (P11802 whole entry): as the sequence (P11802 whole entry) above
Sequence of CDK4-cyclinD3 (P30281 whole entry partner): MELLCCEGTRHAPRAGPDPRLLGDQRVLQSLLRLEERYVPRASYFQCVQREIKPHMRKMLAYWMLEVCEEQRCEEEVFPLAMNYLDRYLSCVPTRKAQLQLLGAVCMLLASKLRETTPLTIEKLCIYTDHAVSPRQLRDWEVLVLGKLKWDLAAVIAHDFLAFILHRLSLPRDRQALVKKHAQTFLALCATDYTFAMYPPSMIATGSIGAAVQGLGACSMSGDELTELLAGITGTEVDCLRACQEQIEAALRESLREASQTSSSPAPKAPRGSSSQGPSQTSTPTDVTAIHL

[19] = biological target: FLT3(K663Q) (Homo sapiens, UniProt P36888, K663Q); experiment: KINOMEscan: FLT3(K663Q); assay type: binding; details: 1000 nM, read-out: Percent Control
[20] = biological target: RIPK1 (Homo sapiens, UniProt Q13546); experiment: KINOMEscan: RIPK1; assay type: binding; details: 100 nM, read-out: Percent Control
[21] = biological target: ERK2 (Homo sapiens, UniProt P28482); experiment: KINOMEscan: ERK2; assay type: binding; details: 1000 nM, read-out: Percent Control
[22] = biological target: BMPR1B (Homo sapiens, UniProt O00238); experiment: KINOMEscan: BMPR1B; assay type: binding; details: 1000 nM, read-out: Percent Control
Sequence of BMPR1B (O00238 14-502): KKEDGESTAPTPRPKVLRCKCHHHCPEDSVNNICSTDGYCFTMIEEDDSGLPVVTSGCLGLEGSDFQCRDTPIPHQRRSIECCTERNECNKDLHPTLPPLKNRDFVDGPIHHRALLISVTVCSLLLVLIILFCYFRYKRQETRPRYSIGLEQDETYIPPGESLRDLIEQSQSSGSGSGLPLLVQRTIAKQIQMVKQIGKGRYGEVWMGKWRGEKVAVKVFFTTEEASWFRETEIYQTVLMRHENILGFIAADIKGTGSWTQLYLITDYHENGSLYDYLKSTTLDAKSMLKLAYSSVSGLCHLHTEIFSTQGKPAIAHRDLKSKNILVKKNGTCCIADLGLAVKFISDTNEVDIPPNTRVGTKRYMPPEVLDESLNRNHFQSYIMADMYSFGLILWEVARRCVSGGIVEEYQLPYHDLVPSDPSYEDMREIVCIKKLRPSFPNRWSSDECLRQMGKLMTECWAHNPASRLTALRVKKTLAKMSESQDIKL

[23] = biological target: CHEK2 (Homo sapiens, UniProt O96017); experiment: KINOMEscan: CHEK2; assay type: binding; details: 1000 nM, read-out: Percent Control
[24] = biological target: Opiate μ(OP3, MOP) (Homo sapiens, UniProt P35372); experiment: Eurofins Diversity Panel; assay type: binding; details: hum, Conc. 10 μM
[25] = biological target: Melatonin MT1 (Homo sapiens, UniProt P48039); experiment: Eurofins Diversity Panel; assay type: binding; details: hum, Conc. 10 μM
Sequence of Melatonin MT1 (P48039 whole entry): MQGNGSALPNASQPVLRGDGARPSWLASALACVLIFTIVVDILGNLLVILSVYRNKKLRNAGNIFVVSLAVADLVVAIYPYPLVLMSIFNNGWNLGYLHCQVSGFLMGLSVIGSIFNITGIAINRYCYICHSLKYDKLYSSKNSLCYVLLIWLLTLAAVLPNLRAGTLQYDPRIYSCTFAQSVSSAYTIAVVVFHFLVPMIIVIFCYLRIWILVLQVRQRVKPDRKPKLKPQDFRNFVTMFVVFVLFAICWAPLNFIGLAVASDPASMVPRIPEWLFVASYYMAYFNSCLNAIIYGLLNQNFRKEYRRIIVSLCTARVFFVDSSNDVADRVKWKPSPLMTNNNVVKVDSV

[26] = biological target: TAK1 (Homo sapiens, UniProt O43318); experiment: KINOMEscan: TAK1; assay type: binding; details: 100 nM, read-out: Percent Control
[27] = biological target: CDK7 (Homo sapiens, UniProt P50613); experiment: KINOMEscan: CDK7; assay type: binding
Sequence of CDK7 (P50613 whole entry): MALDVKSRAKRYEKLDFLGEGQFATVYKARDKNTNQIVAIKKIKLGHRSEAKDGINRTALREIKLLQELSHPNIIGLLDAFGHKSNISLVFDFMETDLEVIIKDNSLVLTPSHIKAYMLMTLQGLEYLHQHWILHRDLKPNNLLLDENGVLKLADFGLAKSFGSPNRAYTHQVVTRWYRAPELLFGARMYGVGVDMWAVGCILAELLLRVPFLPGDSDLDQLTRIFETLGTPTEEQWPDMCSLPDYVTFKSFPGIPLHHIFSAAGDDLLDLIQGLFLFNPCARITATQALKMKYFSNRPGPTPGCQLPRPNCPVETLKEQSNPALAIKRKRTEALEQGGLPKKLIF
Procedure: The structure and synthesis of VIP152 were recently described by Lücking et al.. (Fig. 1A); however, the selectivity of the molecule in cellular systems has yet to be explored. […] We also performed this experiment at 1000 nM, where CDK9 was inhibited at 99%. […] We found a strong concordance between our data and those of Lücking when comparing the most inhibited kinases. Potential off-target effects of VIP152 were next tested in vitro at a concentration of 10 µM for off-target activity against a broad range of receptors, transporters, ion channels, and enzymes (n = 138) using the Eurofins Diversity Panel.
Kinomescan Kinase Profiling Assay
Kinomescan Assay was performed at DiscoverRX and described in Fabian, et al. 2005, Nat.
Biotechnol. In brief, kinases were produced and subsequently tagged with DNA for qPCR detection.
Streptavidin-coated magnetic beads were bound to biotinylated kinase ligands to serve as a solid support.
VIP152 was dissolved in DMSO and tested across a 10 serial threefold dilution set and compared to a test compound and a DMSO control. Kinases which were inhibited by VIP152 would not be bound to the solid-support resulting in decreased substrate for the qPCR reaction. Kinome map was produced via TreeSpot Analysis from DiscoverRX. […]
NanoBRETTM Target Engagement Assay Protocol […]
The cell and lipid:DNA […]
complex was dispensed into a sterile tissue culture dish and incubated for 22-24 hours. Test compounds were then delivered from the compound source plate to the wells of a 384-well white NBS plate by Echo 550. Cells with NanoBRET Tracer Reagent were then prepared by first removing media from dish of transfected HEK293 cells via aspiration, trypsinization, and allowing cells to dissociate from the dish. Trypsin was neutralized using medium containing serum and centrifuged at 200g for 5 minutes to pellet the cells. Cell density was then adjusted to 2E05 cells/mL in Opti-MEM without phenol red. Complete 20X NanoBRET Tracer Reagent was prepared with Tracer Dilution Buffer and dispensed at a ratio of 1:20 Reagent to cells in the tube. The cell

[28] = biological target: YSK1 (Homo sapiens, UniProt O00506); experiment: KINOMEscan: YSK1; assay type: binding; details: 100 nM, read-out: Percent Control
[29] = test system: MEC-1; experiment: MTS proliferation assay; assay type: cell-based; details: Homo sapiens
[30] = biological target: Epidermal Growth Factor (EGF) (Homo sapiens, UniProt P00533); experiment: Eurofins Diversity Panel; assay type: binding; details: hum, Conc. 10 μM

`COc1cc(F)ccc1-c1cc(Nc2cc(CS(C)(=N)=O)ccn2)ncc1F` (stereo not shown) [VIP152] was tested, and the IC50 [1] was about 100 nM, the remaining binding at 1 µM [2] was 100% and the remaining binding at 1 µM [3] was 82%. It also gave a remaining binding at 0.1 µM [4] of 100%, a remaining binding at 0.1 µM [5] of 100% and an inhibition at 10 µM [6] of -5%. It also gave a remaining binding at 1 µM [7] of 81%, a remaining binding at 1 µM [8] of 78% and a remaining binding at 1 µM [9] of 7.8%. It also gave a remaining binding at 0.1 µM [10] of 100%, an inhibition at 10 µM [11] of 23% and a remaining binding at 0.1 µM [12] of 100%. It also gave a remaining binding at 1 µM [13] of 13%, a remaining binding at 1 µM [14] of 13% and a remaining binding at 1 µM [15] of 66%. For the same compound, the remaining binding at 0.1 µM [16] was 71%, the remaining binding at 0.1 µM [17] was 100% and the remaining binding at 1 µM [18] was 14%. It also gave a remaining binding at 1 µM [19] of 80%, a remaining binding at 0.1 µM [20] of 100% and a remaining binding at 1 µM [21] of 99%. The remaining binding at 1 µM [22] was 46%, the remaining binding at 1 µM [23] was 77% and the inhibition at 10 µM [24] was 8%. For the same compound, the inhibition at 10 µM [25] was 6%, the remaining binding at 0.1 µM [26] was 97% and the inhibition at 0.1 µM ([27]; 100 nM) was 64%. It also gave an inhibition at 1 µM ([27]; 1000 nM) of 97.9%, a remaining binding at 0.1 µM ([27]; CDK7, 100 nM, read-out: Percent Control) of 36% and a remaining binding at 1 µM ([27]; CDK7, 1000 nM, read-out: Percent Control) of 2.1%. It also gave a remaining binding at 0.1 µM [28] of 100%, an IC50 ([29]; MEC1, 24, 48, and 72 h, read-out: proliferation IC50) of 150 to 1000 nM and an IC50 ([29]; MEC1, two-hour drugging followed by washout, MTS after 72 h, read-out: 50% growth inhibition) of 1700 nM. The inhibition at 10 µM [30] was -15%.
